According to patent US5084462A, “4-quinoline carboxylic acid derivatives useful as immunosuppressive agents” (The Du Pont Merck Pharmaceutical Company, priority 1990, dated 1992):
Where two headings read alike, the source gives them in different places.

How the values were obtained:
[1] = test system: human mixed lymphocyte reaction; assay: Human mixed lymphocyte reaction (3H-thymidine incorporation); format: cell-based; details: Table 4, human PBMC of two donors, 6 days
Source text: Contact sensitivity to DNFB has teen extensively studied and characterized in the mouse to determine the regulatory mechanisms involved in cell mediated immune responses (Claman, et al., Immunol Rev 50:105, 1980). This is an antigen-specific T-cell mediated inflammatory response that represents delayed-type hypersensitivity reactions seen in both humans and other mammals. The primary use of the human mixed lymphocyte reaction is for the determination of transplantation compatibility between the donor (graft) and the recipient (Park and Good, p. 71. In Yunis, et al., Tissue typing and organ transplantation. 1973 Academic Press Inc., N.Y.).
Blood was obtained by venipuncture from two nonrelated human donors. Peripheral blood mononuclear cells (PBMC) were isolated from these samples by using the Leuco Prep procedure (Becton-Dickinson). PBMC were washed twice in phosphate buffered saline (without calcium and magnesium) and the separate cell isolations were adjusted to the appropriate concentrations in media (RPMI 1640) supplemented with 10% human AB serum and […] gentamicin. Cells from donor A (2×10^5) were incubated with cells from donor B (2×10^5) in 96 well round bottom microliter plates at 37° C., 5% CO2 for 6 days. Eighteen hours prior to harvesting cells from the plates, all wells were pulsed with 1 μCi of ^3 H-thymidine. Cells from the plates were harvested on day 6 and ^3 H-thymidine incorporation was determined using a scintillation counter.

[2] = test system: adjuvant-induced arthritis; assay: Adjuvant-induced arthritis in rats; format: in vivo, Male Lewis rats; details: for ED50: Rattus norvegicus, 432 h, adjuvant-induced arthritis; for Non-Injected Hind-Paw Volume / % Suppression: day 18; for % Suppression: Table 5, non-injected hind paw
Protocol: Rat adjuvant-induced arthritis represents a systemic inflammatory disease with bone and cartilage changes similar to that observed in rheumatoid arthritis, but in an accelerated time span (Pearson, Arth Rheum 7:80, 1964).
Male Lewis rats (Charles River) weighing 160-210 grams were injected subcutaneously with 0.1 ml of Freund's Complete Adjuvant containing 5 mg of M. butyricum/ml of paraffin oil (Difco Laboratories) into the plantar region of the right hind paw. Paraffin oil was injected for non-arthritic controls. Ten rats were used per group. Compounds were prepared in 0.25% Methocel® (Dow Chemical Co) with one drop of Tween® 80 per 10 ml of Methocel®. Animals were dosed every day beginning on the day of paw injection until day 18. The weight of each animal was recorded every other day beginning on the day of the paw injections. On day 18 the animals were weighed, and the non-injected hind paw volume was measured using a Ugo Basile Volume Differential Plethysmometer.

[3] = test system: contact sensitivity response to 2,4-dinitrofluorobenzene (DNFB); assay: Contact sensitivity response to 2,4-dinitrofluorobenzene (DNFB) in mice; format: in vivo, Balb/c female mice; details: for ED50 / inhibition in vivo at 0.4 mg/kg / inhibition in vivo at 2 mg/kg / inhibition in vivo at 10 mg/kg / inhibition in vivo at 20 mg/kg: Mus musculus; for inhibition in vivo at 0.4 mg/kg / inhibition in vivo at 2 mg/kg / inhibition in vivo at 10 mg/kg / inhibition in vivo at 20 mg/kg: 24 h
Protocol: This is an antigen-specific T-cell mediated inflammatory response that represents delayed-type hypersensitivity reactions seen in both humans and other mammals.
Balb/c female mice (.perspectiveto.20g, Charles River) were sensitized on the shaved abdomen with 25 μl of 0.5% 2,4-dinitrofluorobenzene ([…], Eastman Kodak Co.) in a vehicle of 4:1 acetone:olive oil on days 0 and 1. Mice were ear challenged with 20 μl of 0.2% DNFB in a vehicle of 4:1 acetone:olive oil on day 5. A constant area of the ears was measured immediately before challenge and 24 hours later with an engineer's micrometer. Ear swelling was expressed as the difference in ear thickness before and after challenge in units of 10^-4 inches±SEM. Percent suppression was calculated as: [formula] […] Negative controls were not sensitized on days 0 and 1 but were ear challenged on day 5. Ten mice were used per group.

[4] = Table 5, 10 mg/kg daily to day 18
[5] = po, read-out: % Suppression, Table 2, ear swelling, 0.4 mg/kg oral
[6] = po, read-out: % Suppression, Table 2, ear swelling, 2.0 mg/kg oral
[7] = po, read-out: % Suppression, Table 2, ear swelling, 10.0 mg/kg oral
[8] = po, read-out: % Suppression, Table 2, ear swelling, 20.0 mg/kg oral

SMILES	IC50 [1] [nM]	ED50 ([2]; Table 5 footnote) [mg/kg]	Weight Gain [2, 4] [g]	Non-Injected Hind-Paw Volume ([2]; Table 5, 10 mg/kg daily) [mL]	% Suppression ([2]; 10 mg/kg daily) [%]	ED50 ([3]; po) [mg/kg]	inhibition in vivo at 0.4 mg/kg [3, 5] [%]	inhibition in vivo at 2 mg/kg [3, 6] [%]	inhibition in vivo at 10 mg/kg [3, 7] [%]	inhibition in vivo at 20 mg/kg [3, 8] [%]	Ear Swelling (units ± SEM), increase in ear thickness from day 5 to day 6 ([3]; Table 2, 0.4 mg/kg oral)	Ear Swelling (units ± SEM), increase in ear thickness from day 5 to day 6 ([3]; Table 2, 2.0 mg/kg oral)	Ear Swelling (units ± SEM), increase in ear thickness from day 5 to day 6 ([3]; Table 2, 10.0 mg/kg oral)	Ear Swelling (units ± SEM), increase in ear thickness from day 5 to day 6 ([3]; Table 2, 20.0 mg/kg oral)	further results
COc1ccc2c(c1)c(CC(=O)O)c(C)n2C(=O)c1ccc(Cl)cc1 [Indomethacin, reference compound]	> 1000														
Cc1c(-c2ccc(-c3ccccc3F)cc2)nc2ccc(F)cc2c1C(=O)[O-].[Na+] [Example 2, Sodium 2-(2'-Fluoro-1,1'-biphenyl-4-yl)-6-fluoro-3-methylquinoline-4-carboxylate]	25	< 10	65.6 ± 5.2	1.15 ± 0.02	96.2	0.95	30.2	66.1	92.3	94.5	51.95 ± 2.33 10^-4 inches	25.61 ± 3.39 10^-4 inches	6.40 ± 1.09 10^-4 inches	4.75 ± 1.20 10^-4 inches	Weight Gain ([2]; Table 5, 2.0 mg/kg daily to day 18): -1.5 ± 3.6 g; Non-Injected Hind-Paw Volume ([2]; Table 5, 2.0 mg/kg daily): 1.62 ± 0.05 mL; % Suppression ([2]; 2.0 mg/kg daily): 34.5%; Toxicity ([2]; Table 5 footnote, 25.0 mg/kg daily): Toxic by day 7
CN(Cc1cnc2nc(N)nc(N)c2n1)c1ccc(C(=O)N[C@@H](CCC(=O)O)C(=O)O)cc1 [Methotrexate, reference compound]	2.5										71.30 ± 2.96 10^-4 inches	60.80 ± 1.99 10^-4 inches	36.10 ± 3.23 10^-4 inches	27.45 ± 4.99 10^-4 inches	inhibition in vivo at 0.4 mg/kg ([3]; po, Table 2, ear swelling, 0.4 mg/kg oral, read-out: % Suppression): 3.83%; inhibition in vivo at 2 mg/kg ([3]; po, Table 2, ear swelling, 2.0 mg/kg oral, read-out: % Suppression): 18.1%; inhibition in vivo at 10 mg/kg ([3]; po, Table 2, ear swelling, 10.0 mg/kg oral, read-out: % Suppression): 51.8%; inhibition in vivo at 20 mg/kg ([3]; po, Table 2, ear swelling, 20.0 mg/kg oral, read-out: % Suppression): 63.6%; inhibition in vivo at 20 mg/kg ([3]; po, Table 3, ear swelling, 20.0 mg/kg oral, read-out: % Suppression): 79.7%; ED50 ([3]; Table 2, suppression of ear swelling, oral, days -2 through 6, read-out: ED50): 9 mg/kg; Ear Swelling (units ± SEM), increase in ear thickness from day 5 to day 6 ([3]; Table 3, 20.0 mg/kg oral): 16.94 ± 2.10 10^-4 inches
Cc1c(-c2ccc(-c3ccccc3)cc2)nc2cccc(Cl)c2c1C(=O)[O-].[Na+] [Example 1, Sodium 2-(1,1'-Biphenyl-4-yl)-5-chloro-3-methyl-quinoline-4-carboxylate]	9.6	21	-14.0 ± 4.2	1.87 ± 0.08	1.4	3.5	11	23.4	92.7	93.9	66.05 ± 4.32 10^-4 inches	56.94 ± 4.80 10^-4 inches	6.10 ± 0.75 10^-4 inches	5.20 ± 1.17 10^-4 inches	Weight Gain ([2]; Table 5, 17.5 mg/kg daily to day 18): 2.8 ± 5.3 g; Non-Injected Hind-Paw Volume ([2]; Table 5, 17.5 mg/kg daily): 1.72 ± 0.08 mL; Weight Gain ([2]; Table 5, 25.0 mg/kg daily to day 18): 20.6 ± 6.3 g; Non-Injected Hind-Paw Volume ([2]; Table 5, 25.0 mg/kg daily): 1.34 ± 0.10 mL; % Suppression ([2]; 17.5 mg/kg daily): 20.8%; % Suppression ([2]; 25.0 mg/kg daily): 70.6%
